Data as given in US20240360148A1 (SUVALENT THERAPEUTICS, INC., priority 2021, published 2024).

What was measured:
SAE1 [1] = target: SAE1 (Homo sapiens (Human), UniProt Q9UBT2); test: SAE High Throughput Biochemical Assay (HTRF), 15 min preincubation; conditions: SAE1 12.5 nM, ATP 100 μM
In short: (§1)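 HTRF detection of SUMO transfer from SUMO-GST to UBC9-His (40 nM each) by SAE1 at 12.5 nM used 100 μM ATP in pH 7.5 HEPES buffer with 10 mM MgCl2 and 0.1% BSA. Enzyme and compound were preincubated 15 min at RT and the reaction ran 45 min, with readings after 2 h and overnight.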

[2] = test system: sumoylation levels (SUMO 2/3 conjugates) in HCT-116 cells; test: HCT-116 4 Hour Cell Assay (Western, SUMO 2/3 conjugates); assay type: cell-based; conditions: Homo sapiens, HCT-116, 4 h, 4 h treatment, Anti-Sumo 2-3 immunoblot, read-out: HCT-116 Western 4 h IC50 (μM) Ave
In short: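 IC50 derived from fluorescent immunoblot quantification of SUMO 2/3 conjugate bands, normalized to total protein, after non-reducing SDS-PAGE. Lysis used RIPA plus NEM; exposure was 4 h across 11 concentrations, three-fold serial dilution starting at 25 μM.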

SAE1 [3] = target: SAE1 (Homo sapiens (Human), UniProt Q9UBE0+Q9UBT2); test: SAE High Throughput Biochemical Assay (HTRF), 15 min preincubation; conditions: read-out: 15 min preincubation HTRF IC50 (μM) Ave, SAE1 12.5 nM, ATP 100 μM
In short: as §1

Chain of SAE1 (Homo sapiens (Human), UniProt Q9UBT2) (Q9UBE0 whole entry): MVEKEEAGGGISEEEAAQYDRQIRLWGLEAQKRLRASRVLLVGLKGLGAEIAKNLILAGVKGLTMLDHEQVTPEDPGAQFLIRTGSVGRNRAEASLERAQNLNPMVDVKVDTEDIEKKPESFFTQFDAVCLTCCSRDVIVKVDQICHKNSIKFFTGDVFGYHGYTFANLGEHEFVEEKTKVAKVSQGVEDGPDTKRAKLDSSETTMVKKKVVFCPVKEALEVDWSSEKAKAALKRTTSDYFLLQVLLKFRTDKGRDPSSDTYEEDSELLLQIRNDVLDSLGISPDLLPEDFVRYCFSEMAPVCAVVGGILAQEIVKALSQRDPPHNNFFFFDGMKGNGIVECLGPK
Chain of SAE1 (Homo sapiens (Human), UniProt Q9UBT2) (Q9UBT2 whole entry): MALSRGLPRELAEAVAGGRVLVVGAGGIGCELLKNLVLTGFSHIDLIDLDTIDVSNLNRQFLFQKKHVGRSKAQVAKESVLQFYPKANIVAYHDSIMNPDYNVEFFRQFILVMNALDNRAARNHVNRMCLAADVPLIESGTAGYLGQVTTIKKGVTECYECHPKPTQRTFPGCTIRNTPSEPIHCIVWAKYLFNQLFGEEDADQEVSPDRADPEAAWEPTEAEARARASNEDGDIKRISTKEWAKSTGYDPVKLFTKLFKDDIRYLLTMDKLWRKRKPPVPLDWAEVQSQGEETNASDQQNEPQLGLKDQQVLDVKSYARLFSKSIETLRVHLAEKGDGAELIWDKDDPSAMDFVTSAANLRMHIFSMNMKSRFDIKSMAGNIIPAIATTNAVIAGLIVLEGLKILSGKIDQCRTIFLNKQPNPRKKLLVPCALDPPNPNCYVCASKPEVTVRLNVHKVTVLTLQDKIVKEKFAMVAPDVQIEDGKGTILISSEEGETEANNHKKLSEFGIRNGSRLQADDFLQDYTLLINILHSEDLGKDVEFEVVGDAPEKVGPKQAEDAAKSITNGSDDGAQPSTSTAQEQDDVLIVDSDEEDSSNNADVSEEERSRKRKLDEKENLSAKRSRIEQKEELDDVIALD
Chain of SAE1 (Homo sapiens (Human), UniProt Q9UBE0+Q9UBT2) (Q9UBE0 whole entry): as the sequence (Q9UBE0 whole entry) above
Chain of SAE1 (Homo sapiens (Human), UniProt Q9UBE0+Q9UBT2) (Q9UBT2 whole entry): as the sequence (Q9UBT2 whole entry) above

## CCn1cc(-c2ccccc2[C@@H]2CN(C(=O)/C=C/C3CNC3)Cc3sc(C#N)cc32)c(C(F)(F)F)n1 [Example 108, (S, E)-6-(3-(Azetidin-3-yl)acryloyl)-4-(2-(1-ethyl-3-(trifluoromethyl)-1 H-pyrazol-4-yl)phenyl)-4,5,6,7-tetrahydrothieno[2,3-c]pyridine-2-carbonitrile]
SAE1 [1]
  IC50: 11000 nM

## [2H]C([2H])([2H])N(C/C=C/C(=O)N1Cc2sc(C#N)cc2[C@H](c2cccc(F)c2-c2cn(CC)nc2C(F)(F)F)C1)C([2H])([2H])[2H] [Example 48, (S,E)-6-(4-(bis(methyl-d3)amino)but-2-enoyl)-4-(2-(1-ethyl-3-(trifluoromethyl)-1 H-pyrazol-4-yl)-3-fluorophenyl)-4,5,6,7-tetrahydrothieno[2,3-c]pyridine-2-carbonitrile]
[2]
  IC50: 0.197 µM
SAE1 [1]
  IC50: 1120 nM

## CCOC/C=C/C(=O)N1Cc2sc(C#N)cc2[C@H](c2ccccc2-c2cn(CC)nc2C(F)(F)F)C1 [Example 8, (S, E)-6-(4-Ethoxybut-2-enoyl)-4-(2-(1-ethyl-3-(trifluoromethyl)-1 H-pyrazol-4-yl)phenyl)-4,5,6,7 tetrahydrothieno[2,3-c]pyridine-2-carbonitrile]
SAE1 [1]
  IC50: 10800 nM

## [2H]C([2H])([2H])N(C/C=C/C(=O)N1Cc2sc(C#N)cc2[C@H](c2ccccc2-c2cn(CC)nc2C(F)(F)F)C1)C([2H])([2H])[2H] [Example 245, (S,E)-6-(4-(bis(methyl-d3)amino)but-2-enoyl)-4-(2-(1-ethyl-3-(trifluoromethyl)-1 H-pyrazol-4-yl)phenyl)-4,5,6,7-tetrahydrothieno[2,3-c]pyridine-2-carbonitrile]
[2]
  IC50: 0.207 µM
SAE1 [1]
  IC50: 4150 nM

## CCn1cc(-c2ccccc2[C@@H]2CN(C(=O)C#CC(C)(C)N)Cc3sc(C#N)cc32)c(C(F)(F)F)n1 [Example 134, (S)-6-(4-Amino-4-methylpent-2-ynoyl)-4-(2-(1-ethyl-3-(trifluoromethyl)-1H-pyrazol-4-yl)phenyl)-4,5,6,7-tetrahydrothieno[2,3-c]pyridine-2-carbonitrile]
[2]
  IC50: 3.12 µM
SAE1 [1]
  IC50: 320 nM

## CCn1cc(-c2ccccc2[C@@H]2CN(C(=O)/C=C/C(F)(F)F)Cc3sc(C#N)cc32)c(C(F)(F)F)n1 [Example 22, (S, E)-4-(2-(1-ethyl-3-(trifluoromethyl)-1 H-pyrazol-4-yl)phenyl)-6-(4,4,4-trifluorobut-2-enoyl)-4,5,6,7-tetrahydrothieno[2,3-c]pyridine-2-carbonitrile]
[2]
  IC50: 0.214 µM
SAE1 [1]
  IC50: 390 nM

## CCn1cc(-c2ccccc2[C@@H]2CN(C(=O)/C=C/CCNC)Cc3sc(C#N)cc32)c(C(F)(F)F)n1 [Example 45, (S, E)-4-(2-(1-ethyl-3-(trifluoromethyl)-1 H-pyrazol-4-yl)phenyl)-6-(5-(methylamino)pent-2-enoyl)-4,5,6,7-tetrahydrothieno[2,3-c]pyridine-2-carbonitrile]
SAE1 [1]
  IC50: 23200 nM

## CCn1cc(-c2c(F)cccc2[C@@H]2CN(C(=O)/C=C/[C@@H]3CCCN3)Cc3sc(C#N)c(C)c32)c(C(F)(F)F)n1 [Example 249, (S)-4-(2-(1-ethyl-3-(trifluoromethyl)-1 H-pyrazol-4-yl)-3-fluorophenyl)-3-methyl-6-((E)-3-((S)-pyrrolidin-2-yl)acryloyl)-4,5,6,7-tetrahydrothieno[2,3-c]pyridine-2-carbonitrile]
[2]
  IC50: 0.169 µM
SAE1 [1]
  IC50: 140 nM

## CCC(/C=C/C(=O)N1Cc2sc(C#N)cc2[C@H](c2ccccc2-c2cn(CC)nc2C(F)(F)F)C1)N(C)C (stereo partly drawn) [Example 24, (4S)-6-((E)-4-(dimethylamino)hex-2-enoyl)-4-(2-(1-ethyl-3-(trifluoromethyl)-1 H-pyrazol-4-yl)phenyl)-4,5,6,7-tetrahydrothieno[2,3-c]pyridine-2-carbonitrile]
SAE1 [1]
  IC50: > 25000 nM

## CCC(N)/C=C/C(=O)N1Cc2sc(C#N)cc2[C@H](c2ccccc2-c2cn(CC)nc2C(F)(F)F)C1 (stereo partly drawn) [Example 39, (4S)-6-((E)-4-aminohex-2-enoyl)-4-(2-(1-ethyl-3-(trifluoromethyl)-1 H-pyrazol-4-yl)phenyl)-4,5,6,7-tetrahydrothieno[2,3-c]pyridine-2-carbonitrile]
SAE1 [1]
  IC50: 8560 nM

## CCn1cc(-c2cc(C(=O)NC)ccc2C2CN(C(=O)/C=C/CN(C)C)Cc3sc(C#N)cc32)c(C(F)(F)F)n1 (stereo not shown) [Example 208, (E)-4-(2-Cyano-6-(4-(dimethylamino)but-2-enoyl)-4,5,6,7-tetrahydrothieno[2,3-c]pyridin-4-yl)-3-(1-ethyl-3-(trifluoromethyl)-1 H pyrazol-4-yl)-N-methylbenzamide]
SAE1 [1]
  IC50: > 25000 nM

## CCn1cc(-c2ccccc2[C@@H]2CN(C(=O)/C=C/[C@H](C)N(C)C)Cc3sc(C#N)cc32)c(C(F)(F)F)n1 [Example 13, (S)-6-((S, E)-4-(dimethylamino)pent-2-enoyl)-4-(2-(1-ethyl-3-(trifluoromethyl)-1 H-pyrazol-4-yl)phenyl)-4,5,6,7-tetrahydrothieno[2,3-c]pyridine-2-carbonitrile]
SAE1 [1]
  IC50: 6220 nM

## CCn1cc(-c2ccccc2[C@@H]2CN(C(=O)/C=C/CNC3(C)CNC3)Cc3sc(C#N)cc32)c(C(F)(F)F)n1 [Example 98, (S,E)-4-(2-(1-Ethyl-3-(trifluoromethyl)-1H pyrazol-4-yl)phenyl)-6-(4-((3-methylazetidin-3-yl)amino)but-2-enoyl)-4,5,6,7-tetrahydrothieno[2,3-c]pyridine-2-carbonitrile]
SAE1 [1]
  IC50: > 25000 nM

## CCn1cc(-c2ccccc2[C@@H]2CN(C(=O)/C=C/C(N)Cc3ccccc3)Cc3sc(C#N)cc32)c(C(F)(F)F)n1 (stereo partly drawn) [Example 44, (4S)-6-((E)-4-amino-5-phenylpent-2-enoyl)-4-(2-(1-ethyl-3-(trifluoromethyl)-1 H-pyrazol-4-yl)phenyl)-4,5,6,7-tetrahydrothieno[2,3-c]pyridine-2-carbonitrile]
SAE1 [1]
  IC50: 9860 nM

## CCn1cc(-c2ccccc2[C@@H]2CN(C(=O)/C=C/C(N)C3CC3)Cc3sc(C#N)cc32)c(C(F)(F)F)n1 (stereo partly drawn) [Example 42, (4S)-6-((E)-4-amino-4-cyclopropylbut-2-enoyl)-4-(2-(1-ethyl-3-(trifluoromethyl)-1 H-pyrazol-4-yl)phenyl)-4,5,6,7-tetrahydrothieno[2,3-c]pyridine-2-carbonitrile]
SAE1 [1]
  IC50: 8390 nM

## CCn1cc(-c2ccccc2[C@@H]2CN(C(=O)/C=C/CN(C)OC)Cc3sc(C#N)cc32)c(C(F)(F)F)n1 [Example 11, (S, E)-4-(2-(1-Ethyl-3-(trifluoromethyl)-1 H-pyrazol-4-yl)phenyl)-6-(4-(methoxy(methyl)amino)but-2-enoyl)-4,5,6,7-tetrahydrothieno[2,3-c]pyridine-2-carbonitrile]
SAE1 [1]
  IC50: > 25000 nM

## CCn1cc(-c2ccccc2[C@@H]2CN(C(=O)C#C[C@]3(C)CCCN3)Cc3sc(C#N)cc32)c(C(F)(F)F)n1 [Example 140, (S)-4-(2-(1-Ethyl-3-(trifluoromethyl)-1 H-pyrazol-4-yl)phenyl)-6-(3-((S)-2-methylpyrrolidin-2-yl)propioloyl)-4,5,6,7-tetrahydrothieno[2,3-c]pyridine-2-carbonitrile]
[2]
  IC50: 2.36 µM
SAE1 [3]
  IC50: 0.12 µM

## CCn1cc(-c2ccccc2[C@@H]2CN(C(=O)C#CCN(C)C)Cc3sc(C#N)cc32)c(C(F)(F)F)n1 [Example 132, (S)-6-(4-(Dimethylamino)but-2-ynoyl)-4-(2-(1-ethyl-3-(trifluoromethyl)-1 H-pyrazol-4-yl)phenyl)-4,5,6,7-tetrahydrothieno[2,3-c]pyridine-2-carbonitrile]
[2]
  IC50: 0.547 µM
SAE1 [3]
  IC50: 0.18 µM
